In patent publication US9730914B2, “3,5-diaminopyrazole kinase inhibitors” (Axikin Pharmaceuticals, Inc., priority 2014, dated 2017):

Legend:
[1] = target: T1, kinase domain protein of RC kinase (RCK) (Homo sapiens, UniProt Q56UN5); experiment: Kinase competition binding assay (Kd, qPCR readout), RC kinase; conditions: Kd class, read-out: RCK Activity Level
T1 construct: made in house; host or cells: E. coli BL21-derived host (T7 phage) or HEK-293
T1 sequence (Q56UN5 1061-1324 limits assumed): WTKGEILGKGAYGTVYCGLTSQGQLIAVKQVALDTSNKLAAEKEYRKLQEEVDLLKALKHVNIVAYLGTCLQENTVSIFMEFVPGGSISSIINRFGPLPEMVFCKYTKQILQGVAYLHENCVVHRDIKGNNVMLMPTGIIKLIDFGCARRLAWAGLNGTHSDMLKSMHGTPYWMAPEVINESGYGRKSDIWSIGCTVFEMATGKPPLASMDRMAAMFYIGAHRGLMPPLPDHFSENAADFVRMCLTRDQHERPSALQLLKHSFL
In short: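 Competition binding: DNA-tagged kinase (T7 phage or HEK-293-expressed) plus immobilized biotinylated ligand beads and compound, 1 h at room temperature, 1% DMSO. Bead-bound kinase eluted and quantified by qPCR. Kd from 11-point 3-fold dilution, top 30,000 nM, retested lower if below 0.5 nM.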

[2] = target: T2, JAK2 (Homo sapiens, UniProt O60674); experiment: Kinase competition binding assay (Kd, qPCR readout), JAK2; conditions: for Kd: Kd class, JAK2, read-out: JAK2 Activity Level; for RCK:JAK2 selectivity ratio: ratio Kd (JAK2): Kd(RCK)
T2 construct: made in house; host or cells: E. coli BL21-derived host (T7 phage) or HEK-293
T2 sequence (O60674 840-1132 limits assumed): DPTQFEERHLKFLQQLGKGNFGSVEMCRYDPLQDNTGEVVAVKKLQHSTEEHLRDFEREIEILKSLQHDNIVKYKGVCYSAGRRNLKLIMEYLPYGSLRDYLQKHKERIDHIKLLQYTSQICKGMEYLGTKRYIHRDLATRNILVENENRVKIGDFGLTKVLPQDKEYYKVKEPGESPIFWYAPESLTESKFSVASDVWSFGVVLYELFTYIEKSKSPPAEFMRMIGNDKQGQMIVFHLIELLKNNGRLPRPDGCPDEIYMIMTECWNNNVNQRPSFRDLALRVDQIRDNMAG
In short: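 Competition binding: DNA-tagged kinase (T7 phage or HEK-293-expressed), immobilized biotinylated ligand beads and compound in SeaBlock/PBS/Tween/DTT buffer, 1 hour at room temperature; bound kinase eluted and quantified by qPCR. Kd from 11-point 3-fold dilution, top 30,000 nM typically, final DMSO 1%.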

[3] = target: T3, JAK3 (Homo sapiens, UniProt P52333); experiment: Kinase competition binding assay (Kd, qPCR readout), JAK3; conditions: for Kd: read-out: JAK3 Activity Level; for RCK:JAK3 selectivity ratio: ratio Kd (JAK3): Kd (RCK)
T3 construct: made in house; host or cells: E. coli BL21-derived host (T7 phage) or HEK-293
T3 sequence (P52333 811-1124 limits assumed): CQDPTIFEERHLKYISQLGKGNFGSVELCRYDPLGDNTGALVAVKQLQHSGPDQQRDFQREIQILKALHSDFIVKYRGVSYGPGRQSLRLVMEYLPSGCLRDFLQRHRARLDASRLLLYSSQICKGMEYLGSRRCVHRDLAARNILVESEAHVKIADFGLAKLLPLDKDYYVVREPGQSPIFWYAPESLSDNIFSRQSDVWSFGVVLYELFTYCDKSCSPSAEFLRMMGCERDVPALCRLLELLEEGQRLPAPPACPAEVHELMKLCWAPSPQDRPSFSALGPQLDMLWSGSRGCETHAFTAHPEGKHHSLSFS
In short: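 Kd values were derived from 11-point, 3-fold compound series at 1% DMSO, usually topping at 30,000 nM, with retesting from a lower top when under 0.5 nM. It competed with bead-immobilized ligand for 1 h at room temperature, and the captured kinase was measured by qPCR after elution.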

SMILES	Kd [1] [nM]	Kd [2] [nM]	RCK:JAK2 selectivity ratio [2]	Kd ([3]; Kd class, JAK3) [nM]	RCK:JAK3 selectivity ratio [3]	JAK3 Activity Level ([3]; Kd class, JAK3)
NC(=O)c1c(Nc2ccc(N3CCOCC3)cc2)n[nH]c1NCc1ccc(O)cc1 [reference compound]	< 50	< 50	D (D represents Kd(JAK2): Kd (RCK)<1)	< 50	C (C represents 1<Kd (JAK3): Kd (RCK)<10)	
C[C@@H]1CN(c2ccc(Nc3n[nH]c(NCc4ccc(O)cc4)c3C(N)=O)cc2)C[C@H](C)O1 [reference compound]	< 50	< 50	D (D represents Kd(JAK2): Kd (RCK)<1)	< 50	C (C represents 1<Kd (JAK3): Kd (RCK)<10)	
NC(=O)c1c(Nc2cnc(N3CCOCC3)c(Cl)c2)n[nH]c1NCc1ccc(O)cc1 [reference compound]	< 50	< 50	C (C represents 1<Kd (JAK2): Kd (RCK)<10)	50 to 100	C (C represents 1<Kd (JAK3): Kd (RCK)<10)	
NC(=O)c1c(Nc2ccc(-n3cccc3)cc2)n[nH]c1NCc1ccc(O)cc1 [reference compound]	< 50	< 50	D (D represents Kd(JAK2): Kd (RCK)<1)	< 50	C (C represents 1<Kd (JAK3): Kd (RCK)<10)	
NC(=O)c1c(Nc2ccc(N3CCOCC3)nc2)n[nH]c1NCc1ccc(O)cc1 [reference compound]	< 50	< 50	D (D represents Kd(JAK2): Kd (RCK)<1)	< 50	C (C represents 1<Kd (JAK3): Kd (RCK)<10)	
NC(=O)c1c(Nc2ccc(-c3ccccn3)cc2)n[nH]c1NCc1ccc(O)cc1 [reference compound]	< 50	< 50	D (D represents Kd(JAK2): Kd (RCK)<1)	< 50	C (C represents 1<Kd (JAK3): Kd (RCK)<10)	
CN1CCN(c2ccc(Nc3n[nH]c(NCc4ccc(O)cc4)c3C(N)=O)cc2)CC1 [reference compound]	< 50	< 50	C (C represents 1<Kd (JAK2): Kd (RCK)<10)	< 50	C (C represents 1<Kd (JAK3): Kd (RCK)<10)	
NC(=O)c1c(Nc2ccc(N3CCOCC3)cn2)n[nH]c1NCc1ccc(O)cc1 [reference compound]	< 50	< 50	D (D represents Kd(JAK2): Kd (RCK)<1)		D (D represents Kd (JAK3): Kd(RCK)<1)	.A
Cc1cc(Nc2n[nH]c(NCc3ccc(O)cc3)c2C(N)=O)cnc1N1CCOCC1 [reference compound]	< 50	< 50	D (D represents Kd(JAK2): Kd (RCK)<1)	< 50	C (C represents 1<Kd (JAK3): Kd (RCK)<10)	
Cc1cc(Nc2n[nH]c(NCc3ccc(O)cc3)c2C(N)=O)cnc1N1CCN(C(C)C)CC1 [reference compound]	< 50	< 50	D (D represents Kd(JAK2): Kd (RCK)<1)	< 50	C (C represents 1<Kd (JAK3): Kd (RCK)<10)	
Cc1cc(Nc2n[nH]c(NCc3ccc(O)cc3)c2C(N)=O)cnc1N1CCN(C)CC1 [reference compound]	< 50	< 50	D (D represents Kd(JAK2): Kd (RCK)<1)	< 50	C (C represents 1<Kd (JAK3): Kd (RCK)<10)	
C[C@@H]1CN(c2ccc(Nc3n[nH]c(NCc4ccc(O)cc4)c3C(N)=O)cc2Cl)C[C@H](C)O1 [reference compound]	< 50	< 50	D (D represents Kd(JAK2): Kd (RCK)<1)	< 50	C (C represents 1<Kd (JAK3): Kd (RCK)<10)	
NC(=O)c1c(Nc2ccc(-c3cccnc3)cc2)n[nH]c1NCc1ccc(O)cc1 [reference compound]	< 50	< 50	C (C represents 1<Kd (JAK2): Kd (RCK)<10)	< 50	C (C represents 1<Kd (JAK3): Kd (RCK)<10)	
CC(C)N1CCN(c2ccc(Nc3n[nH]c(NCc4ccc(O)cc4)c3C(N)=O)cc2Cl)CC1 [reference compound]	< 50	< 50	C (C represents 1<Kd (JAK2): Kd (RCK)<10)	< 50	C (C represents 1<Kd (JAK3): Kd (RCK)<10)	
NC(=O)c1c(Nc2ccc(-c3ccccc3)cc2)n[nH]c1NCc1ccc(O)cc1 [reference compound]	50 to 100	< 50	D (D represents Kd(JAK2): Kd (RCK)<1)	50 to 100	C (C represents 1<Kd (JAK3): Kd (RCK)<10)	
CC(C)(C)c1ccc(Nc2n[nH]c(NCc3ccc(O)cc3)c2C(N)=O)cc1 [reference compound]	< 50	< 50	D (D represents Kd(JAK2): Kd (RCK)<1)	50 to 100	C (C represents 1<Kd (JAK3): Kd (RCK)<10)	
NC(=O)c1c(Nc2ccc3[nH]ncc3c2)n[nH]c1NCc1ccc(O)cc1 [reference compound]	50 to 100	< 50	D (D represents Kd(JAK2): Kd (RCK)<1)	< 50	D (D represents Kd (JAK3): Kd(RCK)<1)	
COc1ccc(C(=O)Nc2ccc(Nc3n[nH]c(NCc4ccc(O)cc4)c3C(N)=O)cc2)cc1 [reference compound]	< 50	< 50	B (B represents 10<Kd(JAK2): Kd (RCK)<100)	< 50	B (B represents 10<Kd (JAK3): Kd (RCK)<100)	
CC(C)C1CCN(c2ccc(Nc3n[nH]c(NCc4ccc(O)cc4)c3C(N)=O)cc2)CC1 [reference compound]	50 to 100	100 to 1000	C (C represents 1<Kd (JAK2): Kd (RCK)<10)	100 to 1000	C (C represents 1<Kd (JAK3): Kd (RCK)<10)	
NC(=O)c1c(Nc2ccc(N3CCOCC3=O)cc2)n[nH]c1NCc1ccc(O)cc1 [reference compound]	< 50	< 50	D (D represents Kd(JAK2): Kd (RCK)<1)	< 50	C (C represents 1<Kd (JAK3): Kd (RCK)<10)	
N#CCc1ccc(Nc2n[nH]c(NCc3ccc(O)cc3)c2C(N)=O)cc1 [reference compound]	< 50	< 50	D (D represents Kd(JAK2): Kd (RCK)<1)	< 50	C (C represents 1<Kd (JAK3): Kd (RCK)<10)	
NC(=O)c1c(Nc2ccc(NC(=O)c3ccc(C(F)(F)F)cc3)cc2)n[nH]c1NCc1ccc(O)cc1 [reference compound]	50 to 100	100 to 1000	C (C represents 1<Kd (JAK2): Kd (RCK)<10)	100 to 1000	C (C represents 1<Kd (JAK3): Kd (RCK)<10)	
CC1CCN(c2ccc(Nc3n[nH]c(NCc4ccc(O)cc4)c3C(N)=O)cc2)CC1 [reference compound]	< 50	< 50	D (D represents Kd(JAK2): Kd (RCK)<1)	50 to 100	C (C represents 1<Kd (JAK3): Kd (RCK)<10)	
